SMILES strings stand for the structures.

One series addresses T1, CRF receptor (Rattus norvegicus, UniProt P35353).
T1 construct: 100 μl of membrane suspension as prepared above to give a total reaction volume of 300 μl; from tissue; host or cells: rat cerebral cortex membrane homogenate
T1 sequence (P35353 24-415): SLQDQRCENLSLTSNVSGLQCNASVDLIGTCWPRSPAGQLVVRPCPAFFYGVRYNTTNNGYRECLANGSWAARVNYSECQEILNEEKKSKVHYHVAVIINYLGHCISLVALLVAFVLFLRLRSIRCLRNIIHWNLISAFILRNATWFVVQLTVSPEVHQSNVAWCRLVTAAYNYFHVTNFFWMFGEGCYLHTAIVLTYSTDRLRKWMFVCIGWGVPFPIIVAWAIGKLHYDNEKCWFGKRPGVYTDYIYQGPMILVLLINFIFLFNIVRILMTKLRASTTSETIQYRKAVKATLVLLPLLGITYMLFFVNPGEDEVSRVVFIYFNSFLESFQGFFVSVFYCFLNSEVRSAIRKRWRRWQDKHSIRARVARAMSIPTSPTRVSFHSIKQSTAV
In words: In vitro CRF receptor binding assay (competition with [125I] ovine CRF, rat cortex membranes). Conditions: read-out: Inhibition Ki.

Compound `CCN(c1nc(C)cc(C)n1)c1c(OC)cc(OC)c(Br)c1Br` [compound 251, N-(2,3-Dibromo-4,6-dimethoxyphenyl)-N-ethyl-4,6-dimethyl-2-pyrimidinamine] came in with a melting point of 133 to 138 °C. Further, on CRF receptor, the inhibition constant (Ki) lay in the range of 501 to 2000 nM.
In the case of `CCN(c1nc(C)cc(C(=O)c2cccnc2)n1)c1ccc(C(C)C)cc1Br` [compound 284], the melting point fell in the range of 165 to 167 °C. At CRF receptor, the Ki was < 500 nM.
Turning to `Cc1cc(N2CCCCC2)nc(N(C)c2ccc(C(C)C)cc2Br)n1` [compound 195], the melting point was 186 to 187 °C. At CRF receptor, the inhibition constant (Ki) is < 500 nM.
The compound `CCN(c1nc(C)cc(N2CCCC2)n1)c1ccc(C(C)C)cc1Br` [compound 192] returned a melting point of 106 to 107 °C. For the same compound, the Ki at CRF receptor was < 500 nM.
Taken in the same sequence, the figures for `CCN(c1nc(C)cc(C)n1)c1ccc(C(C)=O)cc1SC` [compound 187, N-(4-acetyl-2-methylthiophenyl)-N-ethyl-4,6-dimethyl-2-pyrimidinamine] were 125 to 126 °C and < 500 nM.
Taken in the same sequence, the figures for `COc1cc(Br)c(Nc2nc(C)cc(C)n2)c(Br)c1` [compound 223] were 175 to 177 °C and 501 to 2000 nM.
The compound `CCc1ccc(N(c2nc(C)cc(C)n2)C(C)C)c(SC)c1` [compound 181, N-(4-ethyl-2-methylthiophenyl)-N-(1-methylethyl)4,6-dimethyl-2-pyrimidinamine] registered a melting point of 85 to 87 °C. Further, the inhibition constant (Ki) on CRF receptor is < 500 nM.
`COc1ccc(Nc2nc(C)cc(C)n2)c(Br)c1` [compound 204] gave a melting point of 118 to 119 °C. For the same compound, the Ki at CRF receptor fell in the range of 2000 to 10000 nM.
With `CCN(c1nc(C)cc(C(=O)N2CCN(c3ccccc3OC)CC2)n1)c1ccc(C(C)C)cc1Br` [compound 268], the melting point was in the range of 57 to 60 °C. Besides, at CRF receptor, the Ki was < 500 nM.
Turning to `CCN(c1nc(C)nc(C(C#N)c2ccccc2)n1)c1c(Br)cc(OC)cc1OC` (stereo not shown) [compound 247], the melting point fell in the range of 50 to 52 °C. On CRF receptor, the Ki is < 500 nM.
Taken in the same sequence, the figures for `CCN(c1nc(C)cc(N2CCOCC2)n1)c1ccc(C(C)C)cc1I` [compound 30, N-Ethyl-N-(2-iodo4-(1-methylethyl)phenyl)4-morpholinyl-6-methyl-2-pyrimidinamine] were 96 to 98 °C and < 500 nM.
Taken in the same sequence, the figures for `CCN(c1nc(C)cc(N2CCN(C=O)CC2)n1)c1ccc(C(C)C)cc1Br` [compound 25] were 61 to 63 °C and < 500 nM.
Taken in the same sequence, the figures for `CCN(c1nc(C)cc(N2CC[S+]([O-])CC2)n1)c1ccc(C(C)C)cc1I` [compound 56, N-ethyl-N-(2-iodo4-(1-methylethyl)phenyl)4-thiomorpholino-6-methyl-2-pyrimidinamine, S-oxide] were 52 to 55 °C and < 500 nM.
In turn, `CCN(c1nc(C)cc(C)n1)c1c(O)cc(OC)cc1Br` [compound 230, N-(2-Bromo-6-hydroxy-4-methoxyphenyl)-N-ethyl-4,6-dimethyl-2-pyrimidinamine] registered a melting point of 157 to 160 °C. For the same compound, the inhibitory constant (Ki) at CRF receptor was < 500 nM.
Taken in the same sequence, the figures for `C=CCN(c1nc(C)cc(C)n1)c1c(Br)cc(OC)cc1OC` [compound 205] were 88 to 90 °C and < 500 nM.
Taken in the same sequence, the figures for `CCN(c1nc(C)cc(C(=O)c2cc[nH]n2)n1)c1ccc(C(C)C)cc1Br` [compound 286] were 171 to 173 °C and < 500 nM.
Taken in the same sequence, the figures for `CCN(c1nc(C)cc(C)n1)c1ccc(CCO)cc1Br` [compound 64, N-(2-Bromo-4-(2-hydroxyethyl)phenyl)-N-ethyl-4,6-dimethyl-2-pyrimidinamine] were 58 to 60 °C and 2000 to 10000 nM.
`CCN(c1nc(C)cc(C(O)(c2ccccc2)c2ccccc2)n1)c1ccc(C(C)C)cc1Br` [compound 293]: the melting point was in the range of 56 to 58 °C. Besides, on CRF receptor, the Ki is < 500 nM.
In turn, `CCCCc1ccc(N(CCC)c2nc(C)cc(C)n2)c(Br)c1` [compound 20] came in with a melting point of 49 to 50 °C. The Ki at CRF receptor is < 500 nM.
Taken in the same sequence, the figures for `CCN(c1nc(C)cc(C)n1)c1ccc(C#N)cc1SC` [compound 186, N-(4-cyano-2-methylthiophenyl)-N-ethyl-4,6-dimethyl-2-pyrimidinamine] were 99 to 100 °C and < 500 nM.
The compound `Cc1cc(N2CCCC2)nc(N(C)c2ccc(C(C)C)cc2Br)n1` [compound 193] displayed a melting point of 119 to 120 °C. Further, the inhibition constant Ki on CRF receptor is < 500 nM.
Taken in the same sequence, the figures for `CCCCN(c1nc(C)cc(C)n1)c1ccc(C(C)C)cc1Br` [compound 197] were 159 to 160 °C and 501 to 2000 nM.
Taken in the same sequence, the figures for `Cc1cc(C)c2c(C#N)cn(-c3ccc(C(C)C)cc3Br)c2n1` [Example 254] were 105.8 °C and < 500 nM.
Taken in the same sequence, the figures for `CCN(c1nc(C)cc(C)n1)c1ccc(N(C)C(C)=O)cc1SC` [compound 183, N-(2-methylthio-4-(N-acetyl-N-methylamino)phenyl)-N-ethyl-4,6-dimethyl-2-pyrimidinamine] were 158 to 160 °C and 2000 to 10000 nM.
Compound `CCN(c1nc(C)cc(C(=O)N2CCN(c3ncccn3)CC2)n1)c1ccc(C(C)C)cc1Br` [compound 273] registered a melting point of 114 to 116 °C. For the same compound, the Ki at CRF receptor is 501 to 2000 nM.
Taken in the same sequence, the figures for `CCOc1cc(Br)c(Nc2nc(C)cc(C)n2)c(Br)c1` [compound 228] were 165 to 167 °C and 501 to 2000 nM.
In the case of `CCN(c1nc(C)cc(C(=O)c2ccc(OC)cc2)n1)c1ccc(C(C)C)cc1Br` [compound 287], the melting point fell in the range of 104 to 106 °C. Besides, the Ki on CRF receptor lay in the range of 501 to 2000 nM.
Taken in the same sequence, the figures for `CCN(c1nc(C)cc(C(=O)NC2CCCCC2)n1)c1ccc(C(C)C)cc1Br` [compound 62] were 115 °C and 501 to 2000 nM.
Taken in the same sequence, the figures for `CCN(c1nc(C)nc(N2CCSC2)n1)c1ccc(C(C)C)cc1Br` [compound 241] were 70 to 72 °C and < 500 nM.
Taken in the same sequence, the figures for `COc1cc(Br)c(Nc2nc(C)cc(C)n2)c(OC)c1` [compound 203] were 177 to 179 °C and 501 to 2000 nM.
Take `CCOC(=O)c1ccc(N(CC)c2nc(C)cc(C)n2)c(SC)c1` [compound 184, N-(4-carboethoxy-2-methylthiophenyl)-N-ethyl-4,6-dimethyl-2-pyrimidinamine]: the melting point lay in the range of 99 to 100 °C. The Ki on CRF receptor fell in the range of 501 to 2000 nM.
Taken in the same sequence, the figures for `Cc1ccc(N(C)c2nc(C)cc(N3CCOCC3)n2)c(Br)c1` [compound 6] were 40 to 42 °C and 501 to 2000 nM.
In the case of `CCN(c1nc(C)nc(N2CCOCC2)n1)c1c(Br)cc(OC)cc1OC` [compound 237], the melting point fell in the range of 90 to 95 °C. In addition, on CRF receptor, the Ki was < 500 nM.
Taken in the same sequence, the figures for `CCN(c1nc(C)cc(C)n1)c1ccc(Br)cc1SC` [compound 180, N-(4-bromo-2-methylthiophenyl)-N-ethyl-4,6-dimethyl-2-pyrimidinamine] were 91 to 93 °C and < 500 nM.
`CCN(c1nc(C)cc(C)n1)c1c(OC)cc(OC)cc1OC` [compound 15] showed a melting point of 115 to 116 °C. Also, on CRF receptor, the Ki was < 500 nM.
Taken in the same sequence, the figures for `Cc1cc(N2CCSCC2)nc(Nc2c(Br)cc(C(C)C)cc2Br)n1` [compound 166, N-(2,6-dibromo-4-(1-methylethyl)phenyl)4-thiomorpholino-6-methyl-2-pyrimidinamine] were 194 to 195 °C and < 500 nM.
Regarding `CCN(c1nc(C)cc(C)n1)c1ccc(C(C)C)cc1SC` [compound 168, N-(2-methylthio-4-(1-methylethyl)phenyl)-N-ethyl-4,6-dimethyl-2-pyrimidinamine], the melting point was 64 to 66 °C. Further, the inhibitory constant (Ki) on CRF receptor is < 500 nM.
Taken in the same sequence, the figures for `CCOc1cc(Br)c(N(CC)c2nc(C)cc(C)n2)c(Br)c1` [compound 224, N-(2,6-Dibromo-4-(ethoxy)phenyl)-N-ethyl-4,6-dimethyl-2-pyrimidinamine] were 107 to 108 °C and < 500 nM.
Taken in the same sequence, the figures for `CCN(c1nc(C)cc(C)n1)c1ccc(N(C)C)cc1SC` [compound 191, N-(4-(N,N-dimethylamino)-2-methylthiophenyl)-N-ethyl-4,6-dimethyl-2-pyrimidinamine] were 119 to 120 °C and < 500 nM.
Taken in the same sequence, the figures for `CCN(c1nc(C)nc(Oc2ccccc2)n1)c1ccc(C(C)C)cc1Br` [compound 243] were 140 to 142 °C and 2000 to 10000 nM.
Take `COc1cc(OC)c(N(C)c2nc(C)cc(C)n2)c(OC)c1` [compound 14]: the melting point was 145 to 146 °C. The inhibitory constant (Ki) on CRF receptor was in the range of 501 to 2000 nM.
Taken in the same sequence, the figures for `CCN(c1nc(C)nc(N(C)C)n1)c1ccc(C(C)C)cc1Br` [compound 240] were 72 to 75 °C and < 500 nM.
Consider `CCOC(=O)N1CCN(c2nc(C)nc(N(CC)c3c(Br)cc(OC)cc3OC)n2)CC1` [compound 244], for which the melting point lay in the range of 65 to 70 °C. Moreover, the Ki at CRF receptor lay within 2000 to 10000 nM.
Taken in the same sequence, the figures for `CCN(c1nc(C)cc(C)n1)c1ccc(OC)cc1OC` [compound 7] were 120 to 121 °C and < 500 nM.

One may read the melting point as the temperature, or range, at which the solid turns liquid. In general, Ki refers to the equilibrium dissociation constant of an inhibitor or competing ligand from its target.

(Values after patent US6342503B1, “1N-alkyl-n-arylpyrimidinamines and derivatives thereof” (DuPont Pharmaceuticals Company, priority 1993, dated 2002).)
